# Measured values taken from patent publication US7795226B2, “Control of radiation injury” (Biotempt B.V., priority 2006, dated 2010).
# Assays:
# [1] = test system: LPS (E. coli 026:B6)-induced septic shock in BALB/c mice; experiment: LPS-induced septic shock, single dose of peptide; format: in vivo; settings: single dose 5 mg/kg
# Method: (§1) Mice used in sepsis or septic shock experiments: Female BALB/c mice of eight to twelve weeks of age were used for all experiments. The animals were bred in our facility under specific pathogen-free conditions according to the protocols described in the […] of European Laboratory Animal Science Associations (FELASA) Working group on Animal Health (Laboratory Animals 28:1-24, 1994).
# (§2) Injection protocols: For the endotoxin model, BALB/c mice were injected i.p. with 150-300 μg LPS (E. coli 026:B6; Difco Lab., Detroit, Mich., USA). Control groups were treated with PBS i.p. only. To test the effect of peptides, they were dissolved in PBS and injected i.p. at predetermined points in time after LPS treatment.
# (§3) Mice were scored for sickness severity using the following measurement scheme: • 0 No abnormalities. • 1 Percolated fur, but no detectable behavior differences compared to normal mice. • 2 Percolated fur, huddle reflex, responds to stimuli (such as tap on cage), just as active during handling as healthy mouse. • 3 Slower response to tap on cage, passive or docile when handled, but still curious when alone in a new setting. • 4 Lack of curiosity, little or no response to stimuli, quite immobile. • 5 Labored breathing, inability or slow to self-right after being rolled onto back (moribund, sacrificed). • D Dead.
# A first set of septic shock experiments were set up to determine which of the peptides LQG, LQGV (SEQ ID NO:117), VLPALP (SEQ ID NO:140), VLPALPQ (SEQ ID NO:143), MTR, MTRV (SEQ ID NO:119), VVC or QVVC (SEQ ID NO:118) were capable of inhibiting lipopolysaccharide (LPS)-induced septic shock in mice by treating mice with a single dose of peptide at two hours after LPS treatment. Peptides were used at 5 mg/kg bodyweight. BALB/c mice were injected i.p. with escalating doses LPS (E. coli 026:B6; Difco Lab., Detroit, Mich. USA), predetermined to be leading to 80 to 100% mortality in 24 to 72 hours.
# To test the effect of peptide early in the development of shock, mice were treated at two hours or at 24 hours after treatment with varying doses of LPS by i.p. injection with test peptide at 5 mg/kg bodyweight.
# [2] = test system: LPS (E. coli 026:B6)-induced sepsis in BALB/c mice; experiment: endotoxin shock survival after early or late treatment with peptide; format: in vivo
# Method: as §1, §2
# A further set of septic shock experiments were set up to determine which of the peptides LQG, LQGV (SEQ ID NO:117), VLPALP (SEQ ID NO:140), VLPALPQ (SEQ ID NO:143), MTR, MTRV (SEQ ID NO:119), VVC or AQGV (SEQ ID NO:120) under study were most suited to be used early and/or late after or throughout the development of shock. For determining the percent of endotoxin shock survival after late or early treatment with peptide, BALB/c mice were injected i.p. with 300 μg LPS (E. coli 026:B6; Difco Lab., Detroit, Mich. USA), predetermined to be leading to 100% mortality in 48 hours without peptide treatment.
# To evaluate the effect of peptide treatment at an early or late point in time of development of shock, mice were treated at two hours or at 24 hours after LPS injection by i.p. injection with test peptide at 5 mg/kg bodyweight. The mice were followed for 84 hours instead of for 48 hours in the earlier experiments.
# [3] = test system: cell-cycle marker pCDG and auxin-responsive marker DR5::GUS; experiment: Arabidopsis thaliana seedling cell-cycle analysis (GUS markers)
# Method: To further study anti-cell-cycle activity of various oligopeptides, a proliferation experiment in Arabidopsis Thaliana seedlings was performed. The aim was to test a group of 140 oligopeptides of varying length for their effect on plant marker gene expression during rapid growth when avid cell division occurs.
# The peptides were re-suspended in 1× Phosphate Buffer Saline (PBS) pH 8 to a final concentration of 5 mg/ml. The obtained solutions were then divided through 96-well round bottom plates (Corning Incorporated) at 40 microliters per well. Plates were stored before use at […] for four days. Seeds of Arabidopsis thaliana ecotype Ws-0 were surface sterilized in 2% commercial bleach (Gloria) for ten minutes and washed five times with sterile MQ water. The seeds were then re-suspended with 0.1% agar and plated on MS20 plates supplemented with 80 mg/l Kanamycin.
# The plates were placed at […] for two nights and then transferred to a climate room at […] and a 16/8 hours photoperiod. After four days of growth, the seedlings were transferred to 96-well plates containing the peptide solutions (four seedlings per well) and incubated for four and eight hours.
# For this experiment, Arabidopsis homozygous seedlings harboring two reporter genes fused to GUS were used. […] After incubation with the compounds, the seedlings were stained for GUS. The staining reaction was performed in 100 mM sodium phosphate buffer (pH 7.0) that contained 10 mM EDTA, 10% DMSO, 0.1% Triton X-100, 2 mM X-Gluc, 0.5 mM K3Fe(CN)6 and 0.5 mM K4Fe(CN)6 at […] for 16 hours. […] Seedlings were fixed and cleared in chloral hydrate solution for detailed microscopic observation and photography under a microscope equipped with DIC optics.
# Peptides were tested for an effect on marker gene expression on rapidly growing Arabidopsis young seedlings. This was monitored by changes on GUS distribution in different organs: root, root-hypocotyl transition zone and cotyledons.
# [4] = test system: high dose LPS (E. coli 026:B6)-induced septic shock in BALB/c mice; experiment: high dose LPS-induced septic shock, peptide administered twice; format: in vivo; settings: peptide twice (t = 2 and 24 hours) 5 mg/kg
# Method: as §1, §2, §3
# A second set of septic shock experiments were set up to determine which of the peptides LQG, LQGV (SEQ ID NO:117), VLPALP (SEQ ID NO:140), VLPALPQ (SEQ ID NO:143), MTR, MTRV (SEQ ID NO:119), VVC or AQG, AQGV (SEQ ID NO:120), LAG and LAGV (SEQ ID NO:121) were capable of inhibiting high dose LPS-induced septic shock in mice by treating mice with a double dose of peptide at two and 24 hours after LPS treatment. At each treatment, peptides were used at 5 mg/kg bodyweight. BALB/c mice were injected i.p. with high doses LPS (E. coli 026:B6; Difco Lab., Detroit, Mich. USA), predetermined to be leading to 80 to 100% mortality in 24 to 72 hours.
# [5] = test system: BALB/c mice exposed whole body to 10 Gy 137Cs-γ-irradiation; experiment: Whole body γ-irradiation (10 Gy), peptide 1.5 hours before irradiation; format: in vivo; settings: 10 mg/kg i.p. 1.5 hours before 10 Gy; for Watery eyes / Weight loss: affected/total; for Mortality: dead/total
# Method: (§4) In the first experiment, 12-week-old female BALB/c mice were treated intraperitoneally with a single injection of either PBS (n=9) or with a peptide (LQGV (SEQ ID NO:117), VLPALP (SEQ ID NO:140), LPGCPRGVNPVVS (SEQ ID NO:114), MTRVLQGVLPALPQVVC (SEQ ID NO:113); n=8, 10 mg/kg). One and a half hours after the treatment, mice were exposed whole body to a single dose of 10 Gy ^137Cs-γ-irradiation. In the second experiment, 12-week-old female BALB/c mice were first exposed whole body to a single dose of 10 Gy ^137Cs-γ-irradiation and then 1.5 hours after the irradiation treated intraperitoneally with a single injection of either PBS (n=9) or with a peptide (n=8 or 9, 10 mg/kg).
# [6] = test system: BALB/c mice exposed whole body to 10 Gy 137Cs-γ-irradiation; experiment: Whole body γ-irradiation (10 Gy), peptide 1.5 hours after irradiation; format: in vivo; settings: 10 mg/kg i.p. 1.5 hours after 10 Gy; for Watery eyes / Weight loss: affected/total; for Mortality: dead/total
# Method: as §4
substance,measurement,setting,value
VVC,"mice scored D (dead), effect at t = 24 hours",[1]; LPS dose 7**,1
same,"mice scored D (dead), effect at t = 48 hours",[1]; LPS dose 7**,3
same,"mice with sickness score 1, effect at t = 48 hours",[1]; LPS dose 7**,1
same,"mice with sickness score 2, effect at t = 48 hours",[1]; LPS dose 7**,1
same,"mice with sickness score 3, effect at t = 24 hours",[1]; LPS dose 7**,2
same,"mice with sickness score 3, effect at t = 48 hours",[1]; LPS dose 7**,1
same,"mice with sickness score 4, effect at t = 24 hours",[1]; LPS dose 7**,1
same,"mice with sickness score 5, effect at t = 24 hours",[1]; LPS dose 7**,2
same,"mice with sickness score 2, effect at t = 48 hours",[1]; LPS dose 7*,4
same,"mice with sickness score 3, effect at t = 24 hours",[1]; LPS dose 7*,4
same,"mice with sickness score 4, effect at t = 24 hours",[1]; LPS dose 7*,2
same,"mice with sickness score 5, effect at t = 48 hours",[1]; LPS dose 7*,2
same,"mice with sickness score 1, effect at t = 48 hours",[1]; LPS dose 10,2
same,"mice with sickness score 2, effect at t = 24 hours",[1]; LPS dose 10,2
same,"mice with sickness score 2, effect at t = 48 hours",[1]; LPS dose 10,2
same,"mice with sickness score 3, effect at t = 24 hours",[1]; LPS dose 10,2
same,"mice with sickness score 4, effect at t = 24 hours",[1]; LPS dose 10,2
same,"mice with sickness score 5, effect at t = 48 hours",[1]; LPS dose 10,2
same,% Survival,"[2]; 0 hours, peptide 5 mg/kg 2 hours after LPS",100%
same,% Survival,"[2]; 0 hours, peptide 5 mg/kg 24 hours after LPS",100%
same,% Survival,"[2]; 14 hours, peptide 5 mg/kg 2 hours after LPS",100%
same,% Survival,"[2]; 14 hours, peptide 5 mg/kg 24 hours after LPS",100%
same,% Survival,"[2]; 24 hours, peptide 5 mg/kg 2 hours after LPS",100%
same,% Survival,"[2]; 24 hours, peptide 5 mg/kg 24 hours after LPS",100%
same,% Survival,"[2]; 48 hours, peptide 5 mg/kg 2 hours after LPS",80%
same,% Survival,"[2]; 48 hours, peptide 5 mg/kg 24 hours after LPS",100%
same,% Survival,"[2]; 84 hours, peptide 5 mg/kg 2 hours after LPS",50%
same,% Survival,"[2]; 84 hours, peptide 5 mg/kg 24 hours after LPS",100%
same,identified as useful peptide for treatment of radiation injury from cell-cycle studies in plants and in vitro proliferation studies,[3]; Results from Examples 9 and 10,useful
same,effect on cell-cycle marker (pCDG) and auxin-responsive marker (DR5::GUS) (in words),"[3]; seedlings incubated four and eight hours, 5 mg/ml peptide solution",clear effect on the tested markers
same,"mice with sickness score 1, effect at t = 48 hours",[4]; LPS dose 10.5,2
same,"mice with sickness score 2, effect at t = 24 hours",[4]; LPS dose 10.5,5
same,"mice with sickness score 2, effect at t = 48 hours",[4]; LPS dose 10.5,3
same,"mice with sickness score 1, effect at t = 48 hours",[4]; LPS dose 11,2
same,"mice with sickness score 2, effect at t = 24 hours",[4]; LPS dose 11,6
same,"mice with sickness score 2, effect at t = 48 hours",[4]; LPS dose 11,4
LPGCPRGVNPVVS,Watery eyes,[5]; day 0 after irradiation,0/8
same,Weight loss,[5]; day 0 after irradiation,0/8
same,Mortality,[5]; day 0 after irradiation,0/8
same,Mortality,[5]; day 3 after irradiation,0/8
same,Watery eyes,[5]; day 4 after irradiation,1/8
same,Weight loss,[5]; day 4 after irradiation,8/8
same,Mortality,[5]; day 4 after irradiation,0/8
same,Mortality,[5]; day 5 after irradiation,0/8
same,Mortality,[5]; day 6 after irradiation,4/8
same,Mortality,[5]; day 7 after irradiation,8/8
same,Watery eyes,[6]; day 0 after irradiation,0/8
same,Weight loss,[6]; day 0 after irradiation,0/8
same,Mortality,[6]; day 0 after irradiation,0/8
same,Mortality,[6]; day 3 after irradiation,0/8
same,Watery eyes,[6]; day 4 after irradiation,0/8
same,Weight loss,[6]; day 4 after irradiation,8/8
same,Mortality,[6]; day 4 after irradiation,0/8
same,Mortality,[6]; day 5 after irradiation,0/8
same,Mortality,[6]; day 6 after irradiation,6/8
same,Mortality,[6]; day 7 after irradiation,8/8
